The values below come from patent US5051419A, “Prevention or elimination of mycoplasma contamination of animal or plant cell cultures” (Dainippon Pharmaceutical Co., Ltd., priority 1988, dated 1991).

Values after ≈ are worked out from the molar mass of the structure shown.

In one experiment the test system is M. pnumoniae Mac. As to the kind of experiment: Anti-mycoplasmal activity (MIC), agar-dilution method. The class given is cell-based, Mycoplasma pneumoniae. The following applies: Mycoplasma; agar dilution; M. pnumoniae Mac; read-out: MIC. As for the experimental part: (§1) The minimum growth inhibitory concentrations (MIC; μg/ml) of the test chemicals were measured by the agar-dilution method.
(§2) (1) Preparation of a mycoplasma suspension for inoculation
(§3) A stored frozen suspension of mycoplasma (0.2 to 0.3 ml) was inoculated in 2 to 3 ml of a preculture medium to be described later. It was serially diluted tenfold until the dilution ratio reached 10,000 times. These diluted solutions were cultivated at 37° C. for 2 to 7 days. A culture having the highest dilution ratio was selected from those cultures in which a color change of the media was noted as a result of mycoplasma growth. It was diluted to 100 times with the preculture medium to prepare a mycoplasma suspension for inoculation.
(§4) The following preculture media were used.
(§5) For Mycoplasma pneumoniae and Acholeplasma laidlawii, Chanock liquid medium containing 0.5% glucose (pH 7.8) [Library of Bacteriology 2, "Procedures for Isolation and Identification of Human, Animal and Plant Mycoplasmas", edited by Japanese Society for Bacteriology, page 8 (1982), Saikon Publishing Co.] was used.
(§6) (2) Preparation of agar plates containing the test chemicals
(§7) A 1,000 μg/ml aqueous solution of each test chemical was prepared (a difficultly-soluble chemical was dissolved by adding an equimolar amount of sodium hydroxide; the same applies hereinafter). The solution was used as a base solution and its twofold serial dilutions were prepared. The diluted solutions were pipetted on plastic petri dishes each in an amount of 1 ml. The Chanock agar medium (for Mycoplasma hyorhinis, 0.5% mucin was further added) described at page 9 of the above cited "Procedures for Isolation and Identification of Human, Animal and Plant Mycoplasmas" was heated and kept at 55° C. and put in an amount of 9 ml in each of the petri dishes containing the test chemicals and fully mixed with the test chemicals to prepare agar plates containing the test chemicals.
(§8) The mycoplasma suspension for inoculation prepared by the procedure described in section (1) was inoculated in an amount of about 3 microliters on each of the chemical-containing agar plates by means of a Cathra-replicator (3 mm pin). The plates on which Mycoplasma pneumoniae, Mycoplasma arginini, and Acholeplasma laidlawii and Mycoplasma hyorhinis were inoculated were tightly packed in a plastic bag together with the plasic petri dishes including water-immersed absorbent cotton. Mycoplasma pneumoniae was aerobically cultivated at 37° C. under highly humid conditions for 7 days; and Mycoplasma arginini and Acholeplasma laidlawii, for 2 days. The other mycoplasma species were cultivated anaerobically for 2 days by using a GasPak anaerobic system (BBL). After the cultivation, growth of mycoplasma were observed under an OLYMPUS microscope (20-100 X). The lowest concentration of the test chemical at which no growth of mycoplasma was noted is defined as MIC.
For orientation: In agar dilution the substance is mixed into plates at graded concentrations.

For another experiment, the system named is A. laidlawii PG8. The experiment is described as above. The class given is cell-based. The following applies: Acholeplasma laidlawii; agar dilution; A. laidlawii PG8; read-out: MIC. As for the experimental part: as §1, §2, §3, §4, §5, §6, §7, §8
In another experiment the test system is M. arginini G230. Described as above. The class given is cell-based, Mycoplasma arginini. The following applies: Mycoplasmopsis arginini; agar dilution; M. arginini G230; read-out: MIC. The protocol:
as §1, §2, §3, §4
For other mycoplasma species, Chanock liquid medium (pH 6.8) containing 0.2% arginine was used.
as §6, §7, §8

For the next experiment, the system named is M. orale CH-19299. Briefly: Anti-mycoplasmal activity (MIC, MMC), liquid dilution method. As to conditions: Metamycoplasma orale, liquid dilution, M. orale CH-19299; for MBC: CH19299, 120 h, read-out: MMC; for MIC: CH19299, read-out: MIC. The experiment is classed as cell-based, Mycoplasma orale. As for the experimental part: (§9) The minimum growth inhibitory concentration (MIC, μg/ml) and minimum mycoplasmacidal concentration (MMC, μg/ml) of test chemicals were measured by the liquid dilution method. The method of measuring MIC in this example differs from that used in Test Example 1.
(§10) A 1,000 μg/ml aqueous solution of a test chemical was prepared, and diluted to 5 times with a preculture medium. The dilution (200 μg/ml) was serially diluted twofold with the same medium in a 8-well reservoir. Fifty microliters of each diluted solution was distributed in the wells of a microplate. A well to which no test chemical was added was used as a control.
(§11) A mycoplasma suspension for inoculation prepared as in Test Example 1 was pipetted in an amount of 50 microliters to each of the wells. The microplates were sealed by a plate seal, shaken by a micromixer, and cultivated at 37° C. for 5 days. In the control to which no test chemical was added, color change of the medium by the growth of mycoplasma was observed after two days from the start of the cultivation. At this time, 3 microliters of the liquid culture was inoculated in drug-free Chanock agar medium by using a Cathra-replicator. The liquid culture and the agar medium were further cultivated at 37° C. for 3 days (anaerobically in the case of M. orale, and aerobically in the case of A. laidlawii and M. arginini). MIC and MMC were determined from the results of observation on the 5th day. MIC was defined as the lowest concentration of the test chemical at which growth of mycoplasma in the drug-containing liquid medium was not noted, and MMC, as that in the drug-free agar medium.

The subject of a further experiment is A. laidlawii PG-8. The description is as above. The class given is cell-based. The following applies: Acholeplasma laidlawii, liquid dilution, A. laidlawii PG-8; for MBC: PG8, 120 h, read-out: MMC; for MIC: PG8, read-out: MIC. The protocol: as §9, §10, §11
For the next experiment, the system named is mycoplasma. Briefly: Activity of eliminating artificially contaminated mycoplasma from L-929 cells, Test Example 3 as a whole. The following applies: for minimal effective concentration: Mycoplasma, L929, 96 h, L-929 cells, 4 days of treatment, read-out: effective concentration for eliminating mycoplasma contamination. The experiment is classed as cell-based. The protocol: Animal cells, experimentally contaminated by mycoplasma, were cultivated for 4 days in a medium containing the test chemical and then sub-cultivated in a medium to which the test chemical was not added in order to determine whether the mycoplasma re-grew (re-contamination).
(1) Preparation of mycoplasma-contaminated cells
The mycoplasmas described in Table 3 were each pre-cultivated as in Test Example 1, (1). Two milliliters of the cultures were centifuged at 1,500×g for 30 minutes to separate the mycoplasmas. The isolated mycoplasmas were suspended in 2 ml of 10%-FBS-MEM medium (Eagle's minimum essential medium supplemented with 10% fetal bovine serum and 100 U/ml of penicillin G).
Separately, mouse fibroblast cells L-929 was suspended in 10%-FBS-MEM medium so that their density became 2.5×10^4 /ml. Four milliliters of the suspension was put in a petri dish (diameter 6 cm) for tissue culture including two circular cover glasses (diameter 1.8 cm), and then 1 ml of the mycoplasma suspension described above was added. The mixture was incubated at 37° C. in 5% CO2 humidified atmosphere for 3 days, and then sub-cultivated twice in order to obtain mycoplasma-contaminated cells. Mycoplasma-contamination was confirmed by the highly specific DNA-fluorochromic staining method (the above cited "Procedures for Isolation and identification of Human, Animal and Plant Mycoplasmas", pages 95-97).
(2) Experiment of eliminating mycoplasma contamination
Mycoplasma-contaminated L-929 cells were cultivated as described in the preceding section. A 1,000 μg/ml aqueous solution of a test chemical was prepared, and diluted to predetermined concentrations with Eagle's minimum essential medium. The diluted solutions were added to the culture medium. Two petri dishes were used for each concentration of the test chemical, and two circular cover glasses were put in one of them for examination of mycoplasma. No cover glass was put in the other petri dish, and it was used for subcultivation. Cultivation in the test chemical-containing medium was carried out for 4 days, and thereafter, the cultivation was continued for 3 weeks in a drug-free medium. Medium replacement was effected every 3 to 4 days, and subcultivation was carried out once a week. Examination for mycoplasma contamination was performed on the 4th and 7th days, and thereafter every week. The mycoplasmas were detected by the highly specific DNA-fluorochromic staining method.

By MIC is commonly meant the smallest concentration in the dilution series that meets the test's criterion for growth inhibition. Consider `CC1CN(c2c(F)c(N)c3c(=O)c(C(=O)O)cn(C4CC4)c3c2F)CCN1` (stereo not drawn) [Compound 1], for which the MIC with M. pnumoniae Mac came out at 0.025 µg/mL (≈ 0.0661 µM); with A. laidlawii PG8 it was 0.1 µg/mL (≈ 0.264 µM); in the experiment with M. arginini G230 it was 0.1 µg/mL (≈ 0.264 µM); with M. orale CH-19299, 0.39 µg/mL (≈ 1.03 µM); in the experiment with A. laidlawii PG-8, 0.2 µg/mL (≈ 0.529 µM). Moreover, the MBC came to 0.39 µg/mL (≈ 1.03 µM) with M. orale CH-19299 and 0.2 µg/mL (≈ 0.529 µM) in the experiment on A. laidlawii PG-8. Moreover, the minimal effective concentration in the experiment on mycoplasma (both species) came out at 0.39 µg/mL. Besides, the “activity of eliminating mycoplasma contamination” value in the experiment with mycoplasma (in words) is “also showed the activity of eliminating mycoplasma contamination”. In the experiment on mycoplasma (in words), the “effective concentration relative to compound A” value is on record as “twice that of compound A”.

For `CN(C)c1ccc(O)c2c1C[C@H]1C[C@H]3[C@H](N(C)C)C(O)=C(C(N)=O)C(=O)[C@@]3(O)C(O)=C1C2=O` [Compound 3, minocycline], the MIC is 0.78 µg/mL (≈ 1.7 µM) with M. pnumoniae Mac; 0.2 µg/mL (≈ 0.437 µM) in the experiment on A. laidlawii PG8; 0.39 µg/mL (≈ 0.852 µM) in the experiment on M. arginini G230; 0.39 µg/mL (≈ 0.852 µM) in the experiment on M. orale CH-19299; 0.2 µg/mL (≈ 0.437 µM) in the experiment with A. laidlawii PG-8. Besides, the results for the MBC in the experiment with M. orale CH-19299 and in the experiment with A. laidlawii PG-8 were 25 µg/mL (≈ 54.6 µM) and greater than 100 µg/mL, respectively. Besides, the “elimination of mycoplasma and re-growth after removal” value in the experiment on mycoplasma (12.5 μg/ml, 4 days, then drug removed, in words) was “the cells were mycoplasma-negative after 4 days of cultivation, but when the chemical was removed thereafter, re-growth of mycoplasma was observed”.

`NCC1CN(c2c(F)c(N)c3c(=O)c(C(=O)O)cn(C4CC4)c3c2F)CCO1` (stereo not drawn) [Compound A, 5-amino-7-(2-aminomethylmorpholino)-1-cyclopropyl-6,8-difluoro-1,4-dihydro-4-oxoquinoline-3-carboxylic acid]: the minimal inhibitory concentration (MIC) is 0.0125 µg/mL (≈ 0.0317 µM) with M. pnumoniae Mac; 0.0125 µg/mL (≈ 0.0317 µM) in the experiment on A. laidlawii PG8; 0.05 µg/mL (≈ 0.127 µM) in the experiment with M. arginini G230; 0.05 µg/mL (≈ 0.127 µM) in the experiment on M. orale CH-19299; 0.0125 µg/mL (≈ 0.0317 µM) in the experiment with A. laidlawii PG-8. Besides, the figures for the MBC with M. orale CH-19299 and with A. laidlawii PG-8 were 0.05 µg/mL (≈ 0.127 µM) and 0.0125 µg/mL (≈ 0.0317 µM), respectively. Besides, in the experiment on mycoplasma (0.2 μg/ml, both species, in words), the “elimination of mycoplasma and re-growth after removal” value was “gave a mycoplasma negative in 4 days from the start of cultivation, and when thereafter subcultivation was performed in the absence of the compound A, no re-growth of mycoplasmas were noted”. Also, the minimal effective concentration in the experiment on mycoplasma (both species) turned out to be 0.2 µg/mL.
